Test results: patent US20090170867A1, “TRPV1 ANTAGONISTS INCLUDING SULFONAMIDE SUBSTITUENT AND USES THEREOF” (Shionogi & Co., Ltd., priority 2007, published 2009)

Molecular target: T1, human TRPV1 (Homo sapiens, UniProt Q8NER1)
T1 construct: using primers designed surrounding the complete hTRPV1 open reading frame; expressed in transfected cells; host or cells: CHO-K1 cells stably transfected with pcDNA3.1(-)-hVR1 plasmid
Assay: Capsaicin-based assay, Protocol 2 (TRPV1/CHO cells, Fluo-4, FLIPR)
Type: cell-based
Details: capsaicin 100 nM final, mean ± SEM, number of trials in parentheses, read-out: TRPV1 IC50 Potency, Human Capsaicin CHO (hCAP-CHO)
Source text: The TRPV1/CHO cell line was generated as described below. […] The resulting PCR products were purified from agarose gels using Gel Band Purification Kit (GE Healthcare Bioscience) and were subcloned into pCR-Blunt vector (Invitrogen). The cloned cDNA was fully sequenced using a fluorescent dye-terminator reagent (BigDye Terminator ver3.1 Cycle Sequencing Kit, Applied Biosystems) and ABI Prism 3100 genetic analyzer (Applied Biosystems). The pCR-Blunt vector containing the hTRPV1 cDNA was subjected to restriction digestion with EcoRI. The restriction fragment was subcloned into expression vector pcDNA3.1 (-) (Invitrogen) and named pcDNA3.1 (-)-hVR1 plasmid. The sequence of the cDNA encoding TRPV1 is available at GenBank accession number AJ277028. […] The cells were transfected with the pcDNA3.1 (-)-hVR1 plasmid using FuGENE6 (Roche) according to the manufacturer's protocol. 24 hr after transfection, neomycin-resistant cells were selected using 1 mg/mL G418 (Nacalai Tesque). […] The cells expressing hTRPV1 were cultured in the growth medium supplemented with 1 mg/mL G418. […] Subsequently, the cells were loaded by incubation in 0.1 mL of wash buffer containing Fluo-4 at 3 μM final concentration. After 1 hour, the cells were washed twice with 0.2 mL wash buffer and resuspended in 0.1 mL wash buffer. The plates were then transferred to a Fluorescence Imaging Plate Reader (Molecular Devices). Fluorescence intensity was monitored for 15 seconds to establish a baseline. […] The final concentration of the compound was adjusted to range from 100 μM to 1.5625 μM. […] Data were collected over the entire time course and analyzed using Excel and the curve-fitting formula GraphPad Prism.

T1 sequence (Q8NER1 whole entry): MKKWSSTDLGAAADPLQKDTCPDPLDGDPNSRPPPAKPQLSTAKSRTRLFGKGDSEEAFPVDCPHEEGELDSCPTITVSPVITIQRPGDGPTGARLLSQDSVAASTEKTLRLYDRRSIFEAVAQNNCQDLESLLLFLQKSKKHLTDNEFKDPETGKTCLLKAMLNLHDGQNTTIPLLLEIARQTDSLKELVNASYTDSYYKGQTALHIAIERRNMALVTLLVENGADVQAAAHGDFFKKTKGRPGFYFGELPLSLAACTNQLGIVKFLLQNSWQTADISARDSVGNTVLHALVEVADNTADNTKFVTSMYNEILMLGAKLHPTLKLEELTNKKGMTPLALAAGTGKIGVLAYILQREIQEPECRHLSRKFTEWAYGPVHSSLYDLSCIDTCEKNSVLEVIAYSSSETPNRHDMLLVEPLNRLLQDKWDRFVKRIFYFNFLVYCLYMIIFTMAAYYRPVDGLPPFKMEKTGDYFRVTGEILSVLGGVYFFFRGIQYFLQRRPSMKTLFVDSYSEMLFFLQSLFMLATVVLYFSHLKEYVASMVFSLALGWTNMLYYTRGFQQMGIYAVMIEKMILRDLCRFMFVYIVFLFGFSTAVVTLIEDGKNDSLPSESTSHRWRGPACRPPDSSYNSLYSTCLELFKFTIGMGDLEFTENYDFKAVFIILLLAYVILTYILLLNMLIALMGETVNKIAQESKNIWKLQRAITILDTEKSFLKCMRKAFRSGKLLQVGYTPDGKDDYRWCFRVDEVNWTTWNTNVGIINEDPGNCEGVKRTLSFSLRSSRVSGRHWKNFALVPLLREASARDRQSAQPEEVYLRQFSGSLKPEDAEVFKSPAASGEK

| IC50 [nM] | Structure (SMILES) |
| --- | --- |
| 50.5 ± 9.5 | O=C(Nc1ccc(S(=O)(=O)C(F)(F)F)cc1)N1CC=C(c2ncc([C@H](O)CO)cc2F)CC1 [Compound P1] |
| 1810 ± 302 | O=C(Nc1nc2ccc(Cl)cc2[nH]1)N1CC=C(c2ncc([C@H](O)CO)cc2Cl)CC1 [Compound P4] |
| 49.5 | CC1(c2ncc([C@@H](O)CO)cc2F)CCN(C(=O)Nc2ccc(C(F)(F)F)c(Cl)c2)CC1 [Compound P5] |
| 14.3 ± 1.3 | CC1(c2ncc([C@H](O)CO)cc2F)CCN(C(=O)Nc2ccc(C(F)(F)F)c(Cl)c2)CC1 [Compound Q3] |
| 2900 ± 302 | O=C(Nc1nc2ccc(Cl)cc2[nH]1)N1CC=C(c2ncc([C@@H](O)CO)cc2Cl)CC1 [Compound Q4] |
| 51 ± 18.8 | O=C(Nc1nc2ccc(F)cc2s1)N1CC=C(c2ncc([C@H](O)CO)cc2Cl)CC1 [Compound R1] |
| 15.5 ± 3.5 | Cc1cc(NC(=O)N2CCC(F)(c3ncc([C@H](O)CO)cc3F)CC2)ccc1OC(F)(F)F [Compound R3] |
| 3280 ± 761 | O=C(Nc1nc2ccc(Cl)cc2[nH]1)N1CCC(F)(c2ncc([C@H](O)CO)cc2F)CC1 [Compound R4] |
| 346 | Cc1cc(NC(=O)N2CC=C(c3ncc([C@@H](O)CO)cc3Cl)CC2)ccc1OC(F)(F)F [Compound R5] |
| 7030 ± 2060 | CN(C(=O)N1CC=C(c2ncc([C@H](O)CO)cc2Cl)CC1)c1ccc(C(F)(F)F)cc1 [Compound S4] |
| 226 ± 69.3 | O=C(Nc1ccc(Cl)c(C(F)(F)F)c1)N1CC=C(c2ncc([C@H](O)CO)cc2Cl)CC1 [Compound T2] |
| 451 ± 92.4 | O=C(Nc1ccc(C(F)(F)F)cc1)N1CCC(F)(c2ncc(C(O)(CO)CO)cc2Cl)CC1 [Compound T5] |
| 19.9 ± 6.9 | O=C(Nc1ccc(C(F)(F)F)c(F)c1)N1CCC(F)(c2ncc([C@@H](O)CO)cc2Cl)CC1 [Compound U5] |
| 34 ± 9.2 | COc1cc(NC(=O)N2CCC(F)(c3ncc([C@H](O)CO)cc3Cl)CC2)ccc1C(F)(F)F [Compound V3] |
| 38.4 ± 8 | O=C(Nc1ccc(C(F)(F)F)cc1)N1CCC(F)(c2ncc([C@@H](O)CO)cc2F)CC1 [Compound X4] |
| 230 ± 65.5 | COc1cc(NC(=O)N2CC=C(c3ncc([C@@H](O)CO)cc3Cl)CC2)ccc1C(F)(F)F [Compound X5] |

The remaining lines, values behind:

| Structure (SMILES) | IC50 [nM] |
| --- | --- |
| CN(C)CC(O)c1cnc(C2=CCN(C(=O)Nc3ccc(C(F)(F)F)cc3)CC2)c(Cl)c1 (single isomer, unassigned) [Compound L5] | > 10000 |
| CC(C)c1cc(NC(=O)N2CC=C(c3ncccc3Cl)CC2)ccc1OC(F)(F)F [Compound 205] | > 25000 |
| O=C(Nc1ccc(C(F)(F)F)cc1)N1CCC(F)(c2ncc(C(O)CO)cc2Cl)CC1 (stereo not shown) [Compound A1] | 7 ± 1.8 |
| COc1cc(NC(=O)N2CC=C(c3ncc([C@H](O)CO)cc3Cl)CC2)ccc1C(F)(F)F [Compound A2] | 84.1 ± 11.2 |
| CC1(C)CCOc2cc(NC(=O)N3CC=C(c4ncc([C@H](O)CO)cc4F)CC3)ccc21 [Compound A4] | 55.1 ± 8.6 |
| O=C(Nc1ccc(S(=O)(=O)N2CCCC2)c(C(F)(F)F)c1)N1CC=C(c2ncc([C@@H](O)CO)cc2Cl)CC1 [Compound C3] | 541 ± 216 |
| O=C(Nc1ccc(C(F)(F)F)c(-c2ccccc2)c1)N1CC=C(c2ncc(CO)cc2Cl)CC1 [Compound D3] | 565 ± 58.6 |
| COc1cc(NC(=O)N2CCC(F)(c3ncc([C@@H](O)CO)cc3F)CC2)ccc1C(F)(F)F [Compound D5] | 133 ± 29.1 |
| O=C(Nc1ccc(C(F)(F)F)cn1)N1CC=C(c2ncc(CCO)cc2Cl)CC1 [Compound D6] | 621 ± 117 |
| CC(C)(C)c1ccc(NC(=O)N2CC=C(c3ncc([C@@H](O)CO)cc3F)CC2)cc1 [Compound E1] | 18.5 ± 4.9 |
| COc1cc(NC(=O)N2CCC(F)(c3ncc([C@@H](O)CO)cc3Cl)CC2)ccc1C(F)(F)F [Compound E4] | 75.7 ± 12.8 |
| O=C(Nc1nc2ccc(F)cc2s1)N1CCC(F)(c2ncc([C@H](O)CO)cc2F)CC1 [Compound F5] | 166 ± 24.7 |
| O=C(Nc1ccc(OC(F)(F)F)c(Cl)c1)N1CC=C(c2ncc([C@H](O)CO)cc2Cl)CC1 [Compound H2] | 118 ± 22.1 |
| COCc1cnc(C2=CCN(C(=O)Nc3ccc(C(F)(F)F)cn3)CC2)c(Cl)c1 [Compound H3] | 1110 ± 134 |
| CC(C)S(=O)(=O)c1ccc(NC(=O)N2CC=C(c3ncc(CO)cc3Cl)CC2)cc1C(F)(F)F [Compound I3] | 1360 ± 337 |
| COc1cc(C(F)(F)F)ccc1NC(=O)N1CC=C(c2ncc(CO)cc2Cl)CC1 [Compound J3] | 2940 ± 319 |
| O=C(Nc1nc2ccc(Cl)cc2[nH]1)N1CCC(F)(c2ncc([C@@H](O)CO)cc2F)CC1 [Compound J5] | 1880 ± 634 |
| O=C(Nc1ccc(C(F)(F)F)cn1)N1CC=C(c2ncc([C@H](O)CO)cc2F)CC1 [Compound K4] | 210 ± 19.5 |
| CN1CCCc2ccc(NC(=O)N3CC=C(c4ncccc4F)CC3)cc21 [Compound K5] | 2750 ± 542 |
| O=C(Nc1nc2ccc(F)cc2s1)N1CC=C(c2ncc([C@H](O)CO)cc2F)CC1 [Compound L4] | 439 ± 140 |
| CS(=O)(=O)NCc1cnc(C2=CCN(C(=O)Nc3ccc(C(F)(F)F)cc3)CC2)c(Cl)c1 [Compound M4] | 471 ± 127 |
| O=C(Nc1nc2ccc(Cl)cc2[nH]1)N1CCC(F)(c2ncc([C@H](O)CO)cc2Cl)CC1 [Compound N4] | 1310 ± 220 |
| O=C(Nc1nc2ccc(F)cc2s1)N1CCC(F)(c2ncc([C@@H](O)CO)cc2F)CC1 [Compound N5] | 140 |
| CCCOc1cc(NC(=O)N2CC=C(c3ncc([C@H](O)CO)cc3Cl)CC2)ccc1C(F)(F)F [Compound O1] | 41.1 ± 17.8 |
| O=C(Nc1ccc(S(=O)(=O)C(F)(F)F)cc1)N1CC=C(c2ncc([C@@H](O)CO)cc2Cl)CC1 [Compound O3] | 46 ± 11.3 |
| O=C(Nc1ccc(C(F)(F)F)cc1)N1CC=C(c2ncc(C(CO)CO)cc2Cl)CC1 [Compound O4, 4-(3-chloro-5-(1,3-dihydroxypropan-2-yl)pyridin-2-yl)-N-(4-(trifluoromethyl)phenyl)-5,6-dihydropyridine-1(2H)-carboxamide] | 1520 ± 339 |
| Cc1cc2nc(NC(=O)N3CC=C(c4ncc([C@H](O)CO)cc4Cl)CC3)sc2cc1C [Compound O5] | 244 |
